Reference: patent publication US20210269434A1, “TRICYCLIC COMPOUNDS AS INHIBITORS OF KRAS” (Incyte Corporation, priority 2020, published 2021)

Key:
[1] = system: MIA PaCa-2 (KRAS G12C) cells; experiment: Cellular pERK HTRF assay (KRAS_G12C pERK); assay type: cell-based, human; conditions: Homo sapiens, MIA PaCa-2, 4 hours incubation, read-out: G12C_pERK
In short: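 Phospho-ERK1/2 HTRF readout (665 and 620 nm) in lysed MIA PaCa-2 cells, antibodies incubated overnight at room temperature. Cells seeded the day before and treated with G12C compounds for 4 h at 37 °C; IC50 fitted to percent inhibition against log inhibitor concentration.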

KRAS G12C = KRAS G12C (Homo sapiens, UniProt P01116, G12C); experiment: GDP-GTP exchange assay (KRAS_G12C exchange); assay type: biochemical; conditions: bodipy-GDP loaded KRAS G12C 2.5 nM, SOS1 150 nM, GppNHp; 2 hours pre-incubation, 2 hours reaction; read-out: G12C_exchange
In short: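 Fluorescence exchange of bodipy-GDP for GppNHp, SOS1-driven, read at 485/520 nm; IC50 from four-parameter variable-slope fit. Both mutants used 2.5 nM final labelled protein and a 2 h compound pre-incubation. G12C reaction had 500 uM GppNHp and 150 nM SOS1 for 2 h; G12D ran 4 h.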

Sequence of KRAS G12C (P01116 1-188 isoform P01116-2 G12C): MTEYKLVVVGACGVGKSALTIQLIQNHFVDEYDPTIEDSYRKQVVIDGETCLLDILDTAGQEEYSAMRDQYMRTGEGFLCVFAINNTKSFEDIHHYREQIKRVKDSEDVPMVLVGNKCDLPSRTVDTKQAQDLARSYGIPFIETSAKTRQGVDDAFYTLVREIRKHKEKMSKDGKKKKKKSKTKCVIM

Row | Structure (SMILES) | IC50 [1] | IC50 (KRAS G12C)
1 | C=CC(=O)N1CC[C@H](n2nnc3c(N4CC(C)(N(C)C)C4)nc4c(F)c(-c5cccc(C)c5Cl)c(C)cc4c32)C[C@H]1CC#N [Example 255, 2-((2S,4S)-1-acryloyl-4-(7-(2-chloro-3-methylphenyl)-4-(3-(dimethylamino)-3-methylazetidin-1-yl)-6-fluoro-8-methyl-1H-[1,2,3]triazolo[4,5-c]quinolin-1-yl)piperidin-2-yl)acetonitrile] | ≤ 0.1 µM | ≤ 0.1 µM
2 | Cc1cccc(-c2c(C)cc3c(nc(N4CC(C)(N(C)C)C4)c4nnn([C@H]5CCN(C(=O)/C=C/CN(C)C)[C@H](CC#N)C5)c43)c2F)c1Cl [Example 257, 2-((2S,4S)-4-(7-(2-chloro-3-methylphenyl)-4-(3-(dimethylamino)-3-methylazetidin-1-yl)-6-fluoro-8-methyl-1H-[1,2,3]triazolo[4,5-c]quinolin-1-yl)-1-((E)-4-(dimethylamino)but-2-enoyl)piperidin-2-yl)acetonitrile] | ≤ 0.1 µM | ≤ 0.1 µM
3 | CC#CC(=O)N1CC[C@H](n2nnc3c(N4CC(C)(N(C)C)C4)nc4c(F)c(-c5cccc(C)c5Cl)c(C)cc4c32)C[C@H]1CC#N [Example 258, 2-((2S,4S)-1-(but-2-ynoyl)-4-(7-(2-chloro-3-methylphenyl)-4-(3-(dimethylamino)-3-methylazetidin-1-yl)-6-fluoro-8-methyl-1H-[1,2,3]triazolo[4,5-c]quinolin-1-yl)piperidin-2-yl)acetonitrile] | ≤ 0.1 µM | ≤ 0.1 µM
4 | C=CC(=O)N1CC[C@H](n2nnc3c(N4CCOCC4=O)nc4c(F)c(-c5cccc(C)c5Cl)c(C)cc4c32)C[C@H]1CC#N [Example 259, 2-((2S,4S)-1-acryloyl-4-(7-(2-chloro-3-methylphenyl)-6-fluoro-8-methyl-4-(3-oxomorpholino)-1H-[1,2,3]triazolo[4,5-c]quinolin-1-yl)piperidin-2-yl)acetonitrile] | ≤ 0.1 µM | ≤ 0.1 µM
5 | Cc1cccc(-c2c(C)cc3c(nc(N4CCOCC4=O)c4nnn([C@H]5CCN(C(=O)/C=C/CF)[C@H](CC#N)C5)c43)c2F)c1Cl [Example 261, 2-((2S,4S)-4-(7-(2-chloro-3-methylphenyl)-6-fluoro-8-methyl-4-(3-oxomorpholino)-1H-[1,2,3]triazolo[4,5-c]quinolin-1-yl)-1-((E)-4-fluorobut-2-enoyl)piperidin-2-yl)acetonitrile] | ≤ 0.1 µM | ≤ 0.1 µM
6 | C=CC(=O)N1CC[C@H](n2cnc3c(N4CC(N(C)C)C4)nc4c(F)c(-c5cccc(C)c5C(F)(F)F)c(Cl)cc4c32)C[C@H]1CC#N [Example 264, 2-((2S,4S)-1-acryloyl-4-(8-chloro-4-(3-(dimethylamino)azetidin-1-yl)-6-fluoro-7-(3-methyl-2-(trifluoromethyl)phenyl)-1H-imidazo[4,5-c]quinolin-1-yl)piperidin-2-yl)acetonitrile] | ≤ 0.1 µM | ≤ 0.1 µM
7 | C=CC(=O)N1CC[C@H](n2cnc3c(N4CC(N(C)C)C4)nc4c(F)c(-c5cnc(C)c6ccccc56)c(Cl)cc4c32)C[C@H]1CC#N [Example 268a, 2-((2S,4S)-1-acryloyl-4-(8-chloro-4-(3-(dimethylamino)azetidin-1-yl)-6-fluoro-7-(1-methylisoquinolin-4-yl)-1H-imidazo[4,5-c]quinolin-1-yl)piperidin-2-yl)acetonitrile] | ≤ 0.1 µM | ≤ 0.1 µM

Second part, the molecule after the results:

Row | IC50 [1] | IC50 (KRAS G12C) | Structure (SMILES)
8 | ≤ 0.1 µM | ≤ 0.1 µM | CC#CC(=O)N1CC[C@H](n2nnc3c(OC[C@@H]4CCCN4C)nc4c(F)c(-c5cccc(C)c5Cl)c(C)cc4c32)C[C@H]1CC#N [Example 254, 2-((2S,4S)-1-(but-2-ynoyl)-4-(7-(2-chloro-3-methylphenyl)-6-fluoro-8-methyl-4-(((S)-1-methylpyrrolidin-2-yl)methoxy)-1H-[1,2,3]triazolo[4,5-c]quinolin-1-yl)piperidin-2-yl)acetonitrile]
9 | ≤ 0.1 µM | ≤ 0.1 µM | Cc1cccc(-c2c(C)cc3c(nc(N4CC(C)(N(C)C)C4)c4nnn([C@H]5CCN(C(=O)/C=C/CF)[C@H](CC#N)C5)c43)c2F)c1Cl [Example 256, 2-((2S,4S)-4-(7-(2-chloro-3-methylphenyl)-4-(3-(dimethylamino)-3-methylazetidin-1-yl)-6-fluoro-8-methyl-1H-[1,2,3]triazolo[4,5-c]quinolin-1-yl)-1-((E)-4-fluorobut-2-enoyl)piperidin-2-yl)acetonitrile]
10 | ≤ 0.1 µM | ≤ 0.1 µM | CC#CC(=O)N1CC[C@H](n2nnc3c(N4CCOCC4=O)nc4c(F)c(-c5cccc(C)c5Cl)c(C)cc4c32)C[C@H]1CC#N [Example 260, 2-((2S,4S)-1-(but-2-ynoyl)-4-(7-(2-chloro-3-methylphenyl)-6-fluoro-8-methyl-4-(3-oxomorpholino)-1H-[1,2,3]triazolo[4,5-c]quinolin-1-yl)piperidin-2-yl)acetonitrile]
11 | ≤ 0.1 µM | ≤ 0.1 µM | Cc1cccc(-c2c(Cl)cc3c(nc(N4CC(N(C)C)C4)c4ncn([C@H]5CCN(C(=O)/C=C/CN(C)C)[C@H](CC#N)C5)c43)c2F)c1C(F)(F)F [Example 262, 2-((2S,4S)-4-(8-chloro-4-(3-(dimethylamino)azetidin-1-yl)-6-fluoro-7-(3-methyl-2-(trifluoromethyl)phenyl)-1H-imidazo[4,5-c]quinolin-1-yl)-1-((E)-4-(dimethylamino)but-2-enoyl)piperidin-2-yl)acetonitrile]
12 | ≤ 0.1 µM | ≤ 0.1 µM | CC#CC(=O)N1CC[C@H](n2cnc3c(N4CC(N(C)C)C4)nc4c(F)c(-c5cccc(C)c5C(F)(F)F)c(Cl)cc4c32)C[C@H]1CC#N [Example 263, 2-((2S,4S)-1-(but-2-ynoyl)-4-(8-chloro-4-(3-(dimethylamino)azetidin-1-yl)-6-fluoro-7-(3-methyl-2-(trifluoromethyl)phenyl)-1H-imidazo[4,5-c]quinolin-1-yl)piperidin-2-yl)acetonitrile]
13 | ≤ 0.1 µM | ≤ 0.1 µM | C=CC(=O)N1CC[C@H](n2cnc3c(N4CC(N(C)C)C4)nc4c(F)c(-c5cccc6cccc(Cl)c56)c(Cl)cc4c32)C[C@H]1CC#N [Example 265, 2-((2S,4S)-1-acryloyl-4-(8-chloro-7-(8-chloronaphthalen-1-yl)-4-(3-(dimethylamino)azetidin-1-yl)-6-fluoro-1H-imidazo[4,5-c]quinolin-1-yl)piperidin-2-yl)acetonitrile]
14 | ≤ 0.1 µM | ≤ 0.1 µM | C=CC(=O)N1CC[C@H](n2cnc3c(N4CC(N(C)C)C4)nc4c(F)c(-c5c(C)c(F)cc6[nH]ncc56)c(Cl)cc4c32)C[C@H]1CC#N [Example 266a, 2-((2S,4S)-1-acryloyl-4-(8-chloro-4-(3-(dimethylamino)azetidin-1-yl)-6-fluoro-7-(6-fluoro-5-methyl-1H-indazol-4-yl)-1H-imidazo[4,5-c]quinolin-1-yl)piperidin-2-yl)acetonitrile]
15 | ≤ 0.1 µM | ≤ 0.1 µM | C=CC(=O)N1CC[C@H](n2cnc3c(N4CC(N(C)C)C4)nc4c(F)c(-c5c(C)ncc6ccccc56)c(Cl)cc4c32)C[C@H]1CC#N [Example 269a, 2-((2S,4S)-1-acryloyl-4-(8-chloro-4-(3-(dimethylamino)azetidin-1-yl)-6-fluoro-7-(3-methylisoquinolin-4-yl)-1H-imidazo[4,5-c]quinolin-1-yl)piperidin-2-yl)acetonitrile]
